The target in the assay is T1, 1,25-dihydroxyvitamin D(3) 24-hydroxylase, mitochondrial (Homo sapiens, UniProt Q07973).
T1 sequence (Q07973 whole entry): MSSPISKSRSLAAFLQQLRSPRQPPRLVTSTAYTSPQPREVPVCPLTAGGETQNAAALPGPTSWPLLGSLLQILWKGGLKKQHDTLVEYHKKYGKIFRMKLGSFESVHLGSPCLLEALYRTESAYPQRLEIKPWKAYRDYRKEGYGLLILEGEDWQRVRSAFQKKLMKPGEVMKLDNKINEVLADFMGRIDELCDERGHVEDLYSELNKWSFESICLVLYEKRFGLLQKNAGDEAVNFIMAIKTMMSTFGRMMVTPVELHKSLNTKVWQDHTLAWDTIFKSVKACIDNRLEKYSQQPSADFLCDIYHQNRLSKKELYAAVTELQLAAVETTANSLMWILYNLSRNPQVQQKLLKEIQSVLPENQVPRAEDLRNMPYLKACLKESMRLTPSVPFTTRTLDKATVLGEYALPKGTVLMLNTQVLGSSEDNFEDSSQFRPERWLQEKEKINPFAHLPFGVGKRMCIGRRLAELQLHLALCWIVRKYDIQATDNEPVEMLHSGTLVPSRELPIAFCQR
Put plainly: Inhibition of human CYP24 hydroxylase expressed in V79 cells.

The structures appear in SMILES notation.

For `C=C1/C(=C\C=C2/CCC[C@]3(C)[C@@H](C(C)=CC(F)=S(N)(=O)c4ccccc4)CC[C@@H]23)C[C@@H](O)C[C@@H]1O` (stereo partly specified), the IC50 was > 1 µM.

For orientation: IC50 means the point on the concentration scale where inhibition reaches its midpoint. High values mean weaker potency in that assay, low ones greater potency in that assay.

Source of the values: BindingDB's records for doi:10.1021/jm040129+ (The Johns Hopkins University, 2004).
